The numbers were not newly measured in US7601757B2, “Lipid system and methods of use” (Abbott Laboratories, priority 2003, dated 2009), which cites them from elsewhere.

SMILES strings stand for the structures.

The test system of series [1] is genetically insulin-resistant diabetic mice (KK-Ay). Particulars: 21 days after daily administration by gavage.
The subject of series [2] is obese individuals with markers of insulin resistance. Particulars: diets rich in alpha-linolenic acid as margarine and muffins made with flaxseed oil.

For `CC/C=C\C/C=C\C/C=C\CCCCCCCC(=O)O` [alpha-linolenic acid], the “Blood glucose response to insulin” value in series [1] is reported as “significant improvement”. Besides, in series [2], the Insulin sensitivity result is “decreased”.
